Legend:
[1] = test system: Nrf2 transcription factor (Nrf2-ARE); assay: Nrf2-ARE induction, luciferase activity in AREc32 (MCF7 cells stably transfected with ARE-LUC); format: cell-based; settings: Homo sapiens, 24 h, basal = 1, read-out: Relative Luciferase activity (response versus basal)
Experimental: For the study of Nrf2 transcription factor, the cellular line AREC32 was used, which is characterized for being stably transfected with the reporter gene of Luciferase linked to the ARE sequence. In the presence electrophilic compounds or oxidative stress, Nrf2 factor binds to ARE sequences, activating luciferase expression and producing a proportional quantity of luciferase. The AREc32 cells were cultured in DMEM media with glutamax, supplemented with 10% fetal bovine serum (FBS), 1% penicillin-streptomycin and 1.6% geneticine (G418) (obtained from GIBCO, Madrid, Spain). Cells were cultured in 75 cm flasks with 11 mL of specific media, incubated at 37° C. and 5% of CO2. Cells were passed every 4-6 days (1:4), whenever the confluence reached 80%. For the experiments, cells were cultured in transparent surface 96 well plates at a density of […] with 100 μL/well. After 24 h in culture, cells were treated with the compounds at different concentrations (1, 10, 30 and 60 μM) during 24 h at 37° C. and 5% CO2. In every experiment it was also included a basal variable, a variable with 10 μM tert-butyl hydroquinone (TBHQ) (positive control) and the variables of the study in a final volume of 100 μL. After an incubation of 24 h with the compounds, luciferase activity was measured by bioluminescence using the commercial kit “Luciferase assay system” (Promega E1500). For that, treatments were removed and cells were washed with 100 μL of PBS 0.1 M. After washing, 20 μL of “lysis buffer” reactive was added to each well. 10 minutes later, luminescence was measured using the multi-well reader FluoStar optima (BMG labtech).
Luminescence was measured in arbitrary units and is directly proportional to luciferase quantity in the wells, which is also directly proportional to Nrf2 transcription factor induction by the specific compound at the established concentration. Measurements were made in duplicate and values were normalized to the basal luminescence value, considered as 1.
The results of Nrf2 induction obtained for the compounds 1 to 16 are shown in Table 1 and are expressed as induction, considering 1 the non-treated cells.

[2] = test system: Nrf2 transcription factor (Nrf2-ARE); assay: as above; format: cell-based; settings: Homo sapiens, 24 h, basal = 1, read-out: Relative Luciferase activity (response versus basal); remark: listed apart in the source

Row | SMILES | fold induction at 10 µM ([1]; 10 μM) | fold induction at 30 µM ([1]; 30 μM) | fold induction at 60 µM ([1]; 60 μM) | fold induction at 1 µM ([1]; 1 μM) | fold induction at 3 µM ([2]; 3 μM) | fold induction at 6 µM ([2]; 6 μM)
1 | CCOC(=O)C=Cc1ccccc1 [Ethyl Cinnamate, reference compound] | 1.46 ± 0.1 | 1.4 ± 0.1 | 1.55 ± 0.1 | – | – | –
2 | CC(C)(C)c1cc(O)ccc1O [TBHQ, tert-butyl hydroquinone] | – | – | – | 2.19 ± 0.1 | 3.83 ± 0.3 | 6.1 ± 0.1
